# Test results reported in ChEMBL document CHEMBL1201862, “PubChem BioAssay data set” (2004).
# Activity calls are given as the source filed them.
# Columns and labels:
# Beta-galactosidase = Beta-galactosidase (Escherichia coli, UniProt Q8VNN2); assay: Dose response counterscreen for EBI2 assay utilizing the enzyme, b-galactosidase.; assay type: functional
# Prothrombin = Prothrombin (Homo sapiens, UniProt P00734); assay: Thrombin 1536 HTS Dose Response Confirmation. [Related pubchem assays: 1046 (Thrombin 1536 HTS; hits were confirmed in this assay)]; assay type: functional
# [1] = target: Mitogen-activated protein kinase 10 (Homo sapiens, UniProt P53779); assay: Dose response biochemical screening assay for inhibitors of c-Jun N-Terminal Kinase 3 (JNK3). [Related pubchem assays: 746 ]
# Sequence of Mitogen-activated protein kinase 10 (P53779 whole entry): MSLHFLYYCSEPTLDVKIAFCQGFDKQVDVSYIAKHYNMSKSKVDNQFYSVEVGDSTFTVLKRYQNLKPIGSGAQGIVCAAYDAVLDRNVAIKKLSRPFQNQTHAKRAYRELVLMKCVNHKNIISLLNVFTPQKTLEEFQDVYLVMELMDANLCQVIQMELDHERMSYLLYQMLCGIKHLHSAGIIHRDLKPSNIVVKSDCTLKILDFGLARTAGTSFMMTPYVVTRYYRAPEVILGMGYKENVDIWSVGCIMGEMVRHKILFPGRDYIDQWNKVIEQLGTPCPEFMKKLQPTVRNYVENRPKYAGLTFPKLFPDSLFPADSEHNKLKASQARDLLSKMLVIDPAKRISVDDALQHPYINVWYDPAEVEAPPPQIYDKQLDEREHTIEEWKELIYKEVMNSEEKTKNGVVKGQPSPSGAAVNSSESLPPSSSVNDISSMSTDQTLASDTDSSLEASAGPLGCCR
# [2] = tested on: Streptococcus sp. 'group A'; assay: growth inhibition of control SK(-) GAS strain, dose response, counter-screen for streptokinase expression inhibitor project, luminescence, kanamycin, BacTiterGlo, confirmation (AID 1900); assay type: functional, organism-based
# Streptokinase A = target: T1, Streptokinase A (Streptococcus pyogenes serotype M1, UniProt P10520); assay: S. pyogenes streptokinase expression inhibitors, potency, dose response, plasminogen activation absorbance, OD405 (AID 1914); assay type: functional, Streptococcus pyogenes M1 GAS;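 further: secreted streptokinase activity via plasminogen activation per viability signal from cell pellet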
# T1 sequence (P10520 whole entry): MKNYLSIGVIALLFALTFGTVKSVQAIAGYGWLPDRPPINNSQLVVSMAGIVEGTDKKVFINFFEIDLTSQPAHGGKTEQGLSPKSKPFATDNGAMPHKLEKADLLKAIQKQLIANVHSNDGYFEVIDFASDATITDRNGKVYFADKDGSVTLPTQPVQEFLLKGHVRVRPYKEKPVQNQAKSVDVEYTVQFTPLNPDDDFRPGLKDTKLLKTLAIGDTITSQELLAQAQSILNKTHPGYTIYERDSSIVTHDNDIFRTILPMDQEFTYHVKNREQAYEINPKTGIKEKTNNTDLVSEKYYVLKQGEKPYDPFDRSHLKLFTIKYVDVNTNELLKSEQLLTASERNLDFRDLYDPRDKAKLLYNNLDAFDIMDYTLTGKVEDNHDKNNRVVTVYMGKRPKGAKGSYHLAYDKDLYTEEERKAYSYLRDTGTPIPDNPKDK
# Estrogen receptor beta [3] = target: T2, Estrogen receptor beta (Homo sapiens, UniProt Q92731);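 further: recombinant ER-beta bound to coactivator SRC1 peptide in presence of estradiol agonist; inhibitors block coactivator peptide binding and lower the FRET signal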
# T2 sequence (Q92731 whole entry): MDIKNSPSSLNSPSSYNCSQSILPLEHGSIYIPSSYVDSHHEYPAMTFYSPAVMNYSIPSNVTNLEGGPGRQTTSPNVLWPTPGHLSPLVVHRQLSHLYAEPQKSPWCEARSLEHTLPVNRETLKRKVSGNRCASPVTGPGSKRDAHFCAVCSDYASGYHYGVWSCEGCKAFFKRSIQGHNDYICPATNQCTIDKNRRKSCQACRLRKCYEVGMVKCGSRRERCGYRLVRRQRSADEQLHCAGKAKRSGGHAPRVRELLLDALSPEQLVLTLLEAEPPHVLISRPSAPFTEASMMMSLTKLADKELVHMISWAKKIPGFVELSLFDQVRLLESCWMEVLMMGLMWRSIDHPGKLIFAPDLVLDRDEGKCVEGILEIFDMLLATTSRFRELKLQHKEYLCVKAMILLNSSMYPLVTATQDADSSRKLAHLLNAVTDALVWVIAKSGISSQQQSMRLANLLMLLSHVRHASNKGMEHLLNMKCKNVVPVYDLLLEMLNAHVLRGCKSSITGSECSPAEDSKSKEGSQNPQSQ
# Streptococcus = assay: Group A Streptococcus viability loss, dose response, counter-screen for streptokinase expression inhibitor project, luminescence, BacTiterGlo (AID 1915); assay type: functional, organism-based;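 further: potency for reduction of bacterial viability or growth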
# Estrogen receptor beta [4] = target: T2, Estrogen receptor beta; assay: ERβ–SRC-3 coactivator interaction inhibitors, confirmation, orthogonal assay, biochemical, ELISA, streptavidin-HRP readout (AID 1060)
# [5] = target: T3, Long-chain-fatty-acid--AMP ligase FadD28 (Mycobacterium tuberculosis, UniProt P9WQ59); assay: Fluorescence polarization aasay to screen for inhibitors that compete for the binding of FadD28 to a bisubstrate Measured in Biochemical System Using Plate Reader - 2147-01_Inhibitor_Dose_CherryPick_Activity.; assay type: functional, Mycobacterium tuberculosis H37Rv
# T3 sequence (P9WQ59 whole entry): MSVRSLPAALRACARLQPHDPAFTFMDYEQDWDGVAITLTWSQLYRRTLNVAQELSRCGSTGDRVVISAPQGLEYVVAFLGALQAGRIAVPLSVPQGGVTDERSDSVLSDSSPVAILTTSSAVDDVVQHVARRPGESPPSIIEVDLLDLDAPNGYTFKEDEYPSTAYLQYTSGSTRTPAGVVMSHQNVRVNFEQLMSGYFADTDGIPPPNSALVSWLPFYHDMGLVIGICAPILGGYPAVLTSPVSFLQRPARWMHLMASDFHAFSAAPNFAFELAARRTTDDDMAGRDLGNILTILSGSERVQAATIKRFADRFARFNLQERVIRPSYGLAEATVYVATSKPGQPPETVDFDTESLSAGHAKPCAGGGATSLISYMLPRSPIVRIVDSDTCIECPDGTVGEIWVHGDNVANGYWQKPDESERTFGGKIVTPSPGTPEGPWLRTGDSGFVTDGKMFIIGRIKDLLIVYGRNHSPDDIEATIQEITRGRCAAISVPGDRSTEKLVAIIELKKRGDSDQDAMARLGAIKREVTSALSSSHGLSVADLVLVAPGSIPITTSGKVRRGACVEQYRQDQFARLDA
# [6] = target: T4, Aryl hydrocarbon receptor (Homo sapiens, UniProt P35869); assay: Luminescence-based cell-based high throughput dose response assay for activators of the Aryl Hydrocarbon Receptor (AHR). [Related pubchem assays: 2796 (Primary screen (AHR activators in singlicate)), 2845 (Confirmation screen (AHR activators in triplicate)), 434939 (Counterscreen (PXR activators in triplicate)), 2804 (Summary (AHR activators))]; assay type: ADME
# T4 sequence (P35869 whole entry): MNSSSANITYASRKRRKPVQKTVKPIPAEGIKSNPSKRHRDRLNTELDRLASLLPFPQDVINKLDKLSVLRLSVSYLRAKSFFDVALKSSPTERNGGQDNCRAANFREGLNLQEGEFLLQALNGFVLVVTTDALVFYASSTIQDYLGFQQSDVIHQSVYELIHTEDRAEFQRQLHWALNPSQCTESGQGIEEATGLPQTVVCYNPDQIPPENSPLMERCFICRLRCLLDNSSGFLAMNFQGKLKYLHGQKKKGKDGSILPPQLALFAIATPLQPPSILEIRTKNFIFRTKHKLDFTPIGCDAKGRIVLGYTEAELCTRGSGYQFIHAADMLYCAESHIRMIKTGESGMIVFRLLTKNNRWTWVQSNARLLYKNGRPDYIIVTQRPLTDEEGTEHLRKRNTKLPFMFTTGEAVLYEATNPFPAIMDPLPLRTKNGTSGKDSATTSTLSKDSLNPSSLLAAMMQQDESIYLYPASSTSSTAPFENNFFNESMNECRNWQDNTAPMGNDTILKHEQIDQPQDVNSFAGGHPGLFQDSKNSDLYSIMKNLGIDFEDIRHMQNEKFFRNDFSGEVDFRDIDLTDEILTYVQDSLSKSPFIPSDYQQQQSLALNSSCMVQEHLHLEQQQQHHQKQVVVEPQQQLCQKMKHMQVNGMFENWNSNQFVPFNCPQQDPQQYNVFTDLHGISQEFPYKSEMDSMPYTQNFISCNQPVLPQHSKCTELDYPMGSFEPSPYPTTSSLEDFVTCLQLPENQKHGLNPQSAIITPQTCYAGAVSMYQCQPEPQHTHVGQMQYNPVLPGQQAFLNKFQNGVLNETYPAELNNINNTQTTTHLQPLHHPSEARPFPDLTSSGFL
# [7] = inhibitors of Vif binding to APOBEC3G peptide, primary screen, biochemical, TR-FRET, GST-Vif 1-94, biotin-A3G peptide, dose response retest (AID 1117319); assay type: functional;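 further: TR-FRET signal of purified GST-Vif binding a biotinylated A3G peptide; inhibitors lower the FRET signal by blocking Vif and A3G binding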
# [8] = target: T5, Corticotropin-releasing factor receptor 2/Corticotropin-releasing factor-binding protein (Homo sapiens, UniProt P24387+Q13324); assay: activators of CRF receptor 2 with binding protein – uHTS hits, confirmation (AID 602473); assay type: functional; details: read-out: EC50_Mean
# T5 sequence (Q13324 whole entry): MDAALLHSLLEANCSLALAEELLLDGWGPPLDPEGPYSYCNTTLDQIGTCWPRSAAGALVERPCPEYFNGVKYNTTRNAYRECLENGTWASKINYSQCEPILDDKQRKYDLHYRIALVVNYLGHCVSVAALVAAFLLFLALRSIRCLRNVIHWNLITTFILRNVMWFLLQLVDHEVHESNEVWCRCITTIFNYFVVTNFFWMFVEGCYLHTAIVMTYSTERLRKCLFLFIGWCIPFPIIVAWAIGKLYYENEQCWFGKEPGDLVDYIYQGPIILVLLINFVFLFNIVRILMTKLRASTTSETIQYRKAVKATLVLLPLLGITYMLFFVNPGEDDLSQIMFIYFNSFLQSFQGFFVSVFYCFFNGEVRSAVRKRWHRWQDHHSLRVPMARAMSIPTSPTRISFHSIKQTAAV
# T5 sequence (P24387 whole entry): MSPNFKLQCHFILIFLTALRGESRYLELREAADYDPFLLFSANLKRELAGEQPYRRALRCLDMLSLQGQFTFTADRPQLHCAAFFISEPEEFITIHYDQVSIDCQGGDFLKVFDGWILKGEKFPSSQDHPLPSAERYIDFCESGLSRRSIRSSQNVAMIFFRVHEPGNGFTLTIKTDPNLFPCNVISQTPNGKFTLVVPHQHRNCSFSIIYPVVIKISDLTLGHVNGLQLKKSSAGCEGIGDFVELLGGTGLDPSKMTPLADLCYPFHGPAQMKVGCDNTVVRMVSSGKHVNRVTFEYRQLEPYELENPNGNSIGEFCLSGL
# [9] = target: Endoplasmic reticulum aminopeptidase 1 (Homo sapiens, UniProt Q9NZ08); assay: ERAP1 aminopeptidase inhibitors, dose response, biochemical, cherry-pick, set 2, plate reader (AID 743314)
# Sequence of Endoplasmic reticulum aminopeptidase 1 (Q9NZ08 whole entry): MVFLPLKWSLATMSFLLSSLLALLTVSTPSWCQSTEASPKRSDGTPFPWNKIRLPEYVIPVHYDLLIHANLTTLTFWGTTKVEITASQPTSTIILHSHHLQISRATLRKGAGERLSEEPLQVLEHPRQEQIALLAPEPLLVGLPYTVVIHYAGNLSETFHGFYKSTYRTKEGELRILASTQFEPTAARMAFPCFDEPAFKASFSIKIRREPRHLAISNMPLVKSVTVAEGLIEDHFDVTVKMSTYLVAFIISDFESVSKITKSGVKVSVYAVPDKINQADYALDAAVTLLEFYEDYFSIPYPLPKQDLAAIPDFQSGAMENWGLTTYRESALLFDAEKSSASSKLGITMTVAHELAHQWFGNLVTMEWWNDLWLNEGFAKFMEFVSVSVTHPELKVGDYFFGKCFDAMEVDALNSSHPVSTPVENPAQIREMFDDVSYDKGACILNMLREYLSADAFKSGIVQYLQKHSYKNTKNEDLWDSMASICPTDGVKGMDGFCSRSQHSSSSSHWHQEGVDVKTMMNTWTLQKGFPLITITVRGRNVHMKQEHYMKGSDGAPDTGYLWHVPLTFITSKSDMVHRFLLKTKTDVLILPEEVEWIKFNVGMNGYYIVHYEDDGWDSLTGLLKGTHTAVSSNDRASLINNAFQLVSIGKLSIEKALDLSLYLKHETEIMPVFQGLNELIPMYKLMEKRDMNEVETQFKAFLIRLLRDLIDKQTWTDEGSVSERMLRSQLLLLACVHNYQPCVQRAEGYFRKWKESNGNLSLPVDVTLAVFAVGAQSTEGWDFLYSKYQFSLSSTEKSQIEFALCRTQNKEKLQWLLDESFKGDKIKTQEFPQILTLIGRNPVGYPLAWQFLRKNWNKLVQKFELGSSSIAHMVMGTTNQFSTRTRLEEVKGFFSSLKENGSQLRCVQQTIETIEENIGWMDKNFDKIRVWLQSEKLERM
# [10] = HEK293T cytotoxicity, dose response, cytotoxicity control for miR-122 modulator project, cell-based, inhibitor set, cherry-pick, set 2 (AID 720697); assay type: functional
# Nonstructural protein 1 = Nonstructural protein 1 (Influenza A virus, UniProt Q194T2); assay type: functional, Influenza A virus (A/California/07/2009(H1N1))
# Sequence of Nonstructural protein 1 (Q194T2 whole entry): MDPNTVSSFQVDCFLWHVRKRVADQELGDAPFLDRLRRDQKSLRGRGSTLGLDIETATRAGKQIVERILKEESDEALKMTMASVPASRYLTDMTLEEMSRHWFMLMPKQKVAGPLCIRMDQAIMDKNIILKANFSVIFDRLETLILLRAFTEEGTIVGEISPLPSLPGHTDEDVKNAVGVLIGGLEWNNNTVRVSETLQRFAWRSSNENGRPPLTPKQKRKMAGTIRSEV
# [11] = target: T6, Histone-lysine N-methyltransferase NSD2 (Homo sapiens, UniProt O96028); assay type: biochemical
# T6 sequence (O96028 whole entry): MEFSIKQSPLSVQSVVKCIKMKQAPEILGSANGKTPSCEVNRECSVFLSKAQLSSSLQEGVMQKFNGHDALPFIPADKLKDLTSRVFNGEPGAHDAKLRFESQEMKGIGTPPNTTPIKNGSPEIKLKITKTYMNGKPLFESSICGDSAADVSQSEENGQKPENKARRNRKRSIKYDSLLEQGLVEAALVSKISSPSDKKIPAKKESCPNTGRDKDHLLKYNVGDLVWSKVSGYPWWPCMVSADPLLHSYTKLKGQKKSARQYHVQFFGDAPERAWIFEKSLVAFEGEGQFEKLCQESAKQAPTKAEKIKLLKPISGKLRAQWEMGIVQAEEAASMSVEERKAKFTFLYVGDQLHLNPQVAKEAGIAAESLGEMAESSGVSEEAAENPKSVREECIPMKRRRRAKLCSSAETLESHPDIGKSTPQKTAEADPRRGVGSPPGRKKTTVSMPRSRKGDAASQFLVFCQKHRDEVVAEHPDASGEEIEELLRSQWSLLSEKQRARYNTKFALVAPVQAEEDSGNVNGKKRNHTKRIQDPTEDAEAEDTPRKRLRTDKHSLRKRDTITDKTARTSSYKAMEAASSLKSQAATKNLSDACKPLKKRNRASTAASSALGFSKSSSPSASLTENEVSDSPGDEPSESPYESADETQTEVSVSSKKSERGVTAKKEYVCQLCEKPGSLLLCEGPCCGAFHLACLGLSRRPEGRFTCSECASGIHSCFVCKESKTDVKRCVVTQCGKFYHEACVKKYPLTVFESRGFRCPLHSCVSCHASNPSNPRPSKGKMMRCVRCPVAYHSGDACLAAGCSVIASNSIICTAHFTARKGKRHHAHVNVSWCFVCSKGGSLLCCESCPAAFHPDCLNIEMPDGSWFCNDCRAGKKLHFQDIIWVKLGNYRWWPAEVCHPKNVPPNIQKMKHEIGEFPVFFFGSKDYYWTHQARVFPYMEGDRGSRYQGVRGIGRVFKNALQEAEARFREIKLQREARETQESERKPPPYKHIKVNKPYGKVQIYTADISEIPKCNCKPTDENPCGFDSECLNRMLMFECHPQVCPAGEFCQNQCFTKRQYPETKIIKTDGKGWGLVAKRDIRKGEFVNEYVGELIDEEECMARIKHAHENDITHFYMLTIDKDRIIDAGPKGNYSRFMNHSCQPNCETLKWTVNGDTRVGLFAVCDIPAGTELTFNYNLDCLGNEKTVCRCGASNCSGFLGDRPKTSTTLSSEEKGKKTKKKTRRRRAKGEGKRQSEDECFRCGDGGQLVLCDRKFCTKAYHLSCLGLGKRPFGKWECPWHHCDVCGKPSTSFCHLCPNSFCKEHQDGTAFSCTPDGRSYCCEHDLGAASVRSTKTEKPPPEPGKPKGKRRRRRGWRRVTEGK
# Sequence of Beta-galactosidase (Q8VNN2 whole entry): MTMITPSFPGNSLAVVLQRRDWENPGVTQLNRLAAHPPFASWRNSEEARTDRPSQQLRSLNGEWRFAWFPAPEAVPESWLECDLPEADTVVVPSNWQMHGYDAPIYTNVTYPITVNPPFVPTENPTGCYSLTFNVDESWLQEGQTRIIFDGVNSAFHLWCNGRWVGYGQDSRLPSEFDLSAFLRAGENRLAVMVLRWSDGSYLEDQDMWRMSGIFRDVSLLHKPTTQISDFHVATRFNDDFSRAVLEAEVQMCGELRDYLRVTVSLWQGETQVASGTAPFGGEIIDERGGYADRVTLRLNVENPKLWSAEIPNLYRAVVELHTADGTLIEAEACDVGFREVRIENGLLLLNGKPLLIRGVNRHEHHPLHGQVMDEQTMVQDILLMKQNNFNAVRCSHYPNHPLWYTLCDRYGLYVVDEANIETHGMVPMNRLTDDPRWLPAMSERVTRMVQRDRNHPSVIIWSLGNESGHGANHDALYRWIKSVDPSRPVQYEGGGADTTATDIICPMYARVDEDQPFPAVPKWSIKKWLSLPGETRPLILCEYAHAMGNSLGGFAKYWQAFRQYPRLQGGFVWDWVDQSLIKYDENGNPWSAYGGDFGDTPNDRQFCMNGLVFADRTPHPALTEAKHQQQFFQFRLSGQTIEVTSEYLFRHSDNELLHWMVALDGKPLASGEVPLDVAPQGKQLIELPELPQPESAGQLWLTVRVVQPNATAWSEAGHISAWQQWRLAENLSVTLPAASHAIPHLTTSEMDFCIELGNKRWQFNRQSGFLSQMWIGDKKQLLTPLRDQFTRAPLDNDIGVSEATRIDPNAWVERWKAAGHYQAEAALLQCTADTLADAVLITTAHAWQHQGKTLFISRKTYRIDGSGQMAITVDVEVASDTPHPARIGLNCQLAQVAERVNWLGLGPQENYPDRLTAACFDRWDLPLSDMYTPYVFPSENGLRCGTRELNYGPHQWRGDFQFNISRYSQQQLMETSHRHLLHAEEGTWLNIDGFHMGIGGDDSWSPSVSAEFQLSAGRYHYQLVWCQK
smiles,measurement,setting,value
Cc1ccc(Cl)cc1N1CCN(C(=O)c2cc3c(O)nc4ccccc4c3n2C)CC1,IC50,Beta-galactosidase,> 80 µM (inactive)
O=C(c1ccc(N2CCCCC2)c([N+](=O)[O-])c1)N(c1ccccn1)c1ccccn1,IC50,Prothrombin,> 50 µM (not active)
FC(F)(F)c1ccc(Oc2ccc3cc(Br)ccc3c2)nc1,IC50,Beta-galactosidase,> 80 µM (inactive)
O=C(NCc1nc2ncc(Br)cc2[nH]1)c1ccccc1,IC50,[1],38.3 µM (not active)
Cc1ccnc(NC(=O)C2CCCN(S(=O)(=O)c3c[nH]cn3)C2)c1 (centres undefined),IC50,Prothrombin,> 50 µM (not active)
CCOC(=O)c1c(NS(=O)(=O)c2ccc(Br)cc2)sc2c1CCC2,EC50,[2],2.1 µM (active)
same,EC50,Streptokinase A,> 150 µM (not active)
same,IC50,Estrogen receptor beta [3],> 50 µM (not active)
same,EC50,Streptococcus,4.07 µM (active)
same,IC50,Estrogen receptor beta [4],> 50 µM (not active)
same,AC50,[5],> 100 µM (inactive)
Cn1c(C(=O)N2CCC(C(N)=O)CC2)cc2cc(Cl)ccc21,EC50,[6],0.91 µM (active)
O=C(Nc1ccccc1N1CCOCC1)c1ccc2[nH]cnc2c1,IC50,Prothrombin,6.87 µM (active)
O=C(CN1C(=O)CSC1=O)Nc1ccccc1N1CCOCC1,IC50,[7],> 100 µM (active)
Cc1cc(C)c2cc(C(=O)N3CCC(C(=O)c4ccc(F)cc4)CC3)[nH]c2c1,IC50,Beta-galactosidase,> 80 µM (inactive)
Cc1ccc2oc(=O)c3cnn(CC(=O)N4CCN(c5ccccn5)CC4)c3c2c1,IC50,[1],> 93.1 µM (not active)
O=c1oc2c(CN3CCN(CCO)CC3)c(O)ccc2cc1-c1ccccn1,EC50,[8],6.05 µM (active)
same,AC50,[9],1.46 µM (active)
COCC(=O)Nc1sc2c(c1C(=O)OC)C(C(=O)OC)CC2 (centres undefined),IC50,[7],> 100 µM (active)
COc1cccc(CNC(=O)[C@H]2N[C@H]3c4ccc(/C=C/c5ccccc5)c(=O)n4C[C@H]3[C@@H]2CO)c1,AC50,[9],16.2 µM (active)
C[C@@H]1CN([C@@H](C)CO)S(=O)(=O)c2ccc(C3=CCCCC3)cc2O[C@@H]1CN(C)C(=O)Nc1ccc2c(c1)OCO2,AC50,[10],0.502 µM (active)
CCN1[C@H](C(=O)Nc2nccs2)[C@@H](CO)[C@@H]2Cn3c(ccc(/C=C/c4ccccc4)c3=O)[C@@H]21,AC50,[9],19 µM (active)
O=[N+]([O-])c1ccccc1/C=C\C=N\N1CCN(c2ccccc2)CC1,IC50,Nonstructural protein 1,59.2 µM (active)
same,AC50,[11],> 20 µM (inactive)
